Laboratory results taken from PubChem BioAssay AID1645848.
Values after ≈ are worked out from the molar mass of the structure shown.

settings: buffer; pH 7.4; 6.0 h; 150.0 µM

| SMILES | solubility kinetic |
| --- | --- |
| NC(=O)C1CCN(c2ncc(-c3ccc(Br)cc3)s2)CC1 | 1.62 µg/mL (≈ 4.42 µM) |
| N#Cc1cccc(-c2nccc(-n3ccnc3)n2)c1 | 7.26 µg/mL (≈ 29.4 µM) |
| CCOC(=O)c1ccc(NC(=O)CSc2nc3c(cc2C#N)N2CCC3CC2)cc1 | 1.15 µg/mL (≈ 2.71 µM) |
| CCOc1ccc(CCNC(=O)c2cc3cccnc3n2Cc2cccc(C)n2)cc1OCC | 43.8 µg/mL (≈ 95.4 µM) |
| CCn1c(C(=O)N2CCCC(C(=O)NCCc3ccc(C)cc3)C2)cc2sccc21 (centres undefined) | 17.1 µg/mL (≈ 40.3 µM) |
| CC(C)c1ccccc1-c1ncc(F)c(NCC2CCN(c3cccnc3)CC2)n1 | 9.06 µg/mL (≈ 22.3 µM) |
| O=c1[nH]c(C2CCN(S(=O)(=O)c3ccc4c(c3)OCCO4)CC2)nc2c1nnn2Cc1c(F)cccc1Cl | < 1 µg/mL |
| CCCN(CCC)CCc1cccc2c1CC(=O)N2 | 23.2 µg/mL (≈ 88.9 µM) |
| CN(C)c1cccc(-c2nnc(N3CCC(C(N)=O)CC3)s2)c1 | > 49 µg/mL |
| Cc1cc(C)nc(NC(=S)N2CCN(c3cccc(OC(F)F)c3)CC2)c1 | 11.6 µg/mL (≈ 29.4 µM) |
| CSc1cccc(NC(=O)CC[C@H]2O[C@@H]3O[C@]4(C)CC[C@H]5[C@H](C)CC[C@@H]([C@@H]2C)[C@@]35OO4)c1 | 1.2 µg/mL (≈ 2.6 µM) |
| O=C(NC1CCCN(c2cc(-c3ccc(F)cc3)[nH]n2)C1)c1ccc2ncccc2c1 (centres undefined) | 12.5 µg/mL (≈ 30.2 µM) |
| CC(=O)NC1CCN(c2nc(-c3ccc(Br)cc3)cs2)CC1 | 5.01 µg/mL (≈ 13.2 µM) |
| NC(=O)C1CCN(c2ncc(-c3ccc(Cl)cc3)s2)CC1 | < 1 µg/mL |
| CCN(CC)CCCNC(=O)c1oc2c(c1C)-c1nn(Cc3ccc(Cl)cc3)cc1CC2 | > 67 µg/mL |
| O=C(NCC1Cn2cccc2CN1Cc1cccnc1)Nc1ccccc1 (centres undefined) | > 53 µg/mL |
| CC1CCCCN1c1ncnc(N)c1[N+](=O)[O-] (centres undefined) | > 35 µg/mL |
| O=C(NCCc1ccccn1)C1CC(=O)N(c2n[nH]c3cc(Br)ccc23)C1 (centres undefined) | 5.42 µg/mL (≈ 12.7 µM) |

Results, then the molecule that gave them:

| solubility kinetic | SMILES |
| --- | --- |
| 25.1 µg/mL (≈ 61.3 µM) | O=C(NCC1CCN(Cc2cccc(Cl)c2)CC1)Nc1ccc(F)c(Cl)c1 |
| > 54 µg/mL | COc1cnccc1-c1nc(Nc2ccc(F)c(F)c2)c2ccccc2n1 |
| < 1 µg/mL | CC1=C(C(=O)Nc2ccccc2)C(c2ccccc2Cl)N=C(Nc2nc3ccccc3o2)N1 (centres undefined) |
| 10.6 µg/mL (≈ 27.5 µM) | O=C(CCc1ccccc1)Nc1ccc(S(=O)(=O)Nc2nccs2)cc1 |
| < 1 µg/mL | Nc1c(C(=O)Nc2ccc(F)cc2)sc2nc(-c3cccs3)cc(C(F)(F)F)c12 |
| < 1 µg/mL | Cc1ccc(S(=O)(=O)Nc2cc(C)ccc2C(=O)Nc2nc(-c3ccccc3)cs2)cc1 |
| 7.58 µg/mL (≈ 18 µM) | Cc1ccc(-c2cc(C(=O)Nc3ccc(-c4nn[nH]n4)cc3)c3ccccc3n2)cc1C |
| > 80 µg/mL | COc1ccccc1CN1CCNc2cc(Nc3ccccc3)ncc2C1 |
| 6.08 µg/mL (≈ 16.6 µM) | COc1c(Cl)cc2c([nH]c3cnccc32)c1NC(=O)c1cccnc1C |
| 4.93 µg/mL (≈ 11 µM) | O=C(Cc1nc2ccc(Cl)cc2[nH]1)Nc1ccc(S(=O)(=O)Nc2nccs2)cc1 |
| 17.3 µg/mL (≈ 47.9 µM) | CCc1[nH]c2ccc(CNC(=O)Cc3cnc4c(C)cccn34)cc2c1C |
| > 55 µg/mL | O=C(Nc1ncccc1O)c1ccc(S(=O)(=O)Nc2ccccc2)cc1 |
| < 1 µg/mL | CC(=O)c1c(C)[nH]c(C(=O)Nc2cccc([S+](=O)([O-])Nc3ccccc3C)c2)c1C |
| 8.51 µg/mL | O=C(O)C(=O)O.Oc1ccccc1NCC(O)Cn1ccc2ccccc21 (centres undefined) |
| 44 µg/mL (≈ 80.3 µM) | Cc1c(C)n(Cc2ccc(-c3ccccc3C(=O)O)cc2)c2ccc(C(=O)N[C@@H](C)c3ccc([N+](=O)[O-])cc3)cc12 |
| 7.52 µg/mL (≈ 19.4 µM) | Cc1cnc(-c2ccccc2C(C)C)nc1NCC1CCN(c2cccnc2)C1 (centres undefined) |
| < 1 µg/mL | O=C(NCc1ccccc1)c1cn2cc(-c3ccccc3)sc2n1 |
| < 1 µg/mL | Cc1cccc(OCC(=O)Nc2ccc3nc(Nc4cccc(Cl)c4)cc(C)c3c2)c1 |
| > 53 µg/mL | CCC(=O)NC(c1cccs1)c1cc([N+](=O)[O-])c2cccnc2c1O (centres undefined) |
| < 1 µg/mL | CCOc1cc2ncc(C#N)c(Nc3ccc(OCc4ccccn4)c(Cl)c3)c2cc1NC(=O)/C=C/CN(C)C |
| < 1 µg/mL | Cc1ccc(S(=O)(=O)Nc2ccccc2C(=O)Nc2nc(-c3ccccc3)c(Br)s2)cc1 |
